According to publication PMC5430831 (Acta Pharmaceutica Sinica. B, 2017):
Where two headings read alike, the source gives them in different places.

Key:
MNK2 = MNK2 (Homo sapiens, UniProt Q9HBH9); assay: Radioactive filter binding kinase assay, MNK2; conditions: read-out: percent inhibition MNK2
HL-60 cells [1] = assay: Cell cycle analysis by flow cytometry; type: cell-based, Human
CHK2 = CHK2 (Homo sapiens, UniProt O96017); assay: Radioactive filter binding kinase assay, CHK2; type: biochemical
HL-60 cells [2] = assay: LDH release assay; type: cell-based, Human
Aurora B = Aurora B (Homo sapiens, UniProt Q96GD4); assay: Radioactive filter binding kinase assay, Aurora B; conditions: read-out: percent inhibition Aurora B
HL-60 cells [3] = assay: Annexin V-FITC/propidium iodide labeling, confocal imaging; type: cell-based, Human; conditions: HL-60, 5 and 10 μmol/L, 48 h
MOLT-4 cells = MOLT-4 cells ref 16; cited from earlier work
HL-60 cells [4] = assay: Mitochondrial membrane potential measurement; type: cell-based, Human; conditions: HL-60, 10 μmol/L, JC-1, from 6 h
HL-60 cells [5] = assay: Drug accumulation assay; type: cell-based, Human; conditions: HL-60, 2 h incubation, emission 446 nm
caspase-3 = assay: Caspase-3 colorimetric activity assay; type: cell-based, Human; conditions: HL-60, 10 μmol/L, 48 h
VEGFR1 = VEGFR1 (Homo sapiens, UniProt P17948); assay: Radioactive filter binding kinase assay, VEGFR1; type: biochemical
[6] = read-out: IC50 CHK2, mean±SD (n=3)
[7] = read-out: IC50 VEGFR1, mean±SD (n=3)

Sequence of CHK2 (O96017 whole entry, species assumed): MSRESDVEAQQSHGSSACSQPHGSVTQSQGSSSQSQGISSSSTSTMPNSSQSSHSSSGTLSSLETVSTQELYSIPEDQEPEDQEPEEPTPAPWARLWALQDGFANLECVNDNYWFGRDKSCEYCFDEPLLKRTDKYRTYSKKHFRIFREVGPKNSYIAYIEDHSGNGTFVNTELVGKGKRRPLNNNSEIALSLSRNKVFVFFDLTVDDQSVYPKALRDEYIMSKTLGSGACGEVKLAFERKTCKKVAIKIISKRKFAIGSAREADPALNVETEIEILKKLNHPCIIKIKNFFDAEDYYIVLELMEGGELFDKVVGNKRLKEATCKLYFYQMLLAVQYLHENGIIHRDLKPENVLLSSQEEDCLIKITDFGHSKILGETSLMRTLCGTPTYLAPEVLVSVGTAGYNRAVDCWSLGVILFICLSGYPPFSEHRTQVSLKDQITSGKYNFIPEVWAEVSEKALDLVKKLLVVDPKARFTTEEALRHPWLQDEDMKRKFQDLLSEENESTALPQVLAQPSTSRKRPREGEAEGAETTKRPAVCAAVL
Sequence of VEGFR1 (P17948 27-1338, species assumed): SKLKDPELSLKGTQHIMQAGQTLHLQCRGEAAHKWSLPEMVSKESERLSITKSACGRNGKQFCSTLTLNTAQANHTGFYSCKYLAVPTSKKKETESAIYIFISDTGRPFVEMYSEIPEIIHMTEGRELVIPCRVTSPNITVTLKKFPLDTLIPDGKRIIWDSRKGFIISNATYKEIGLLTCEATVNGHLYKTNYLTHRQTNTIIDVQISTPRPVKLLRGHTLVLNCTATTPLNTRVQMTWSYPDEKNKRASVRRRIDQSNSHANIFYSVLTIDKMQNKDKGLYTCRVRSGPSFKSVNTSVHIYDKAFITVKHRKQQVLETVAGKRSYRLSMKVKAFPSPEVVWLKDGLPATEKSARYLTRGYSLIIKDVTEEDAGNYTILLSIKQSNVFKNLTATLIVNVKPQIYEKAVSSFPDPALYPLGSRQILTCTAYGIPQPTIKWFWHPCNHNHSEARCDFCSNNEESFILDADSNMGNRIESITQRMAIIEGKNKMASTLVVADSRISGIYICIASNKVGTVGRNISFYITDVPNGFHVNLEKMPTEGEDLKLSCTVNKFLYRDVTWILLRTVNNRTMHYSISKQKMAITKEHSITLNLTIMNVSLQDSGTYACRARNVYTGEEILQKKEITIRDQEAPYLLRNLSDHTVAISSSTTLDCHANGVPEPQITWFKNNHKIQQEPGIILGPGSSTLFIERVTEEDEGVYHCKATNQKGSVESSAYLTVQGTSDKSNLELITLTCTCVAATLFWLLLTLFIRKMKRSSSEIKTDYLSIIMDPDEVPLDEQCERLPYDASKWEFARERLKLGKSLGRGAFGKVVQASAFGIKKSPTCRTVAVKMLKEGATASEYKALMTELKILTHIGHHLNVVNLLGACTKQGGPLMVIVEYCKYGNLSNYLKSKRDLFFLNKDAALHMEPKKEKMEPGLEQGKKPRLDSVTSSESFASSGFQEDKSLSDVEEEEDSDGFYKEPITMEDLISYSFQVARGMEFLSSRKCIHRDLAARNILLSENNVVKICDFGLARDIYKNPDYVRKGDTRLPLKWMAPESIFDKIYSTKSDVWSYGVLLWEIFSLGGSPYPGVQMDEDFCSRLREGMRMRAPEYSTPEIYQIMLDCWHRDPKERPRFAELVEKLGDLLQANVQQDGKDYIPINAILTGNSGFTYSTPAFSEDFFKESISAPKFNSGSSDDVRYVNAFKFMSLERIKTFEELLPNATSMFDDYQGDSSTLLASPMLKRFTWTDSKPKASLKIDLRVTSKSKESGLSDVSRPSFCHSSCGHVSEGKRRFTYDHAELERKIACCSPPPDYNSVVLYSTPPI
Sequence of Aurora B (Q96GD4 whole entry): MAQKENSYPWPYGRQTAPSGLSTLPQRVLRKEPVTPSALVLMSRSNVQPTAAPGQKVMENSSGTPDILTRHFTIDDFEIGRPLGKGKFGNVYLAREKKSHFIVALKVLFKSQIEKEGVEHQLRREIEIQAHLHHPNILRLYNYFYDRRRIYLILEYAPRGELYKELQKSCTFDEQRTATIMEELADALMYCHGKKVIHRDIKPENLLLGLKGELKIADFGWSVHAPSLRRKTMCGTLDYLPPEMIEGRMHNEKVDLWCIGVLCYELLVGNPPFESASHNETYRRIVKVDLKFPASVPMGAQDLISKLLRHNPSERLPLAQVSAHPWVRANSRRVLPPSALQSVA
Sequence of MNK2 (Q9HBH9 whole entry, species assumed): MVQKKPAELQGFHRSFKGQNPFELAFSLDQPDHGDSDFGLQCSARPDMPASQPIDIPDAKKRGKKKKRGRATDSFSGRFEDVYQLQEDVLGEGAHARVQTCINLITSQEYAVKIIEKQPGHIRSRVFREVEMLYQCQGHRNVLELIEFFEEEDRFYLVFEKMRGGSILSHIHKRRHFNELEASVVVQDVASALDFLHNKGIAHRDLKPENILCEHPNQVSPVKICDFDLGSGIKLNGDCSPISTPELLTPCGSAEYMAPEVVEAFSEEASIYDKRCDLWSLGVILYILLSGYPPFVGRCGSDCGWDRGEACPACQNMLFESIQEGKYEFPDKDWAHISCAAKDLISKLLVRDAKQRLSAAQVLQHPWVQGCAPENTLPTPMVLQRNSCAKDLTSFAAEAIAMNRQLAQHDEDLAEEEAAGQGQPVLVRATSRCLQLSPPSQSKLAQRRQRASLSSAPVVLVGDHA

Question: Which activity at 1 µM (MNK2) does the source give for CCCCNc1ncnc2c1sc1nc3ccccc3cc12 [BPTQ, 4-butylaminopyrimido[4′,5′:4,5]thieno(2,3-b)quinoline] here?
Answer: 79%

Question: And the “Sub G0/G1 cells” value (HL-60 cells [1]; HL-60, 10 μmol/L, 48 h)?
Answer: 47%

Question: What about the Cell cycle arrest (HL-60 cells [1]; HL-60, 48 h) of the same molecule?
Answer: did not induce any cell cycle arrest

Question: What about the activity at 1 µM (CHK2; read-out: percent inhibition CHK2) of the same molecule?
Answer: 40%

Question: What about the LDH release (HL-60 cells [2]; HL-60, 10 μmol/L) of the same molecule?
Answer: did not induce LDH release

Question: And the LDH release (HL-60 cells [2]; HL-60, 50 μmol/L)?
Answer: increased the release of LDH

Question: What about the LDH release (HL-60 cells [2]; HL-60, 100 μmol/L) of the same molecule?
Answer: increased the release of LDH

Question: And the activity at 1 µM (Aurora B)?
Answer: 74%

Question: What about the “Annexin V-FITC / propidium iodide staining (apoptosis)” value (HL-60 cells [3]) of the same molecule?
Answer: confirming the induction of apoptosis

Question: And the Cell cycle effect (MOLT-4 cells)?
Answer: cell cycle arrest was observed

Question: What about the “Mitochondrial membrane potential (ΔΨm)” value (HL-60 cells [4]) of the same molecule?
Answer: striking fall in the membrane potential

Question: And the Intracellular drug uptake (HL-60 cells [5])?
Answer: dose dependent increase in the intracellular drug uptake

Question: What about the “Increase in caspase-3 activity relative to control” value (caspase-3) of the same molecule?
Answer: about 2 fold

Question: What about the activity at 1 µM (VEGFR1; read-out: percent inhibition VEGFR1) of the same molecule?
Answer: 44%

Question: For O=C1Nc2ccccc2/C1=C1/Nc2ccccc2C1=O [Indirubin], which IC50 (CHK2) is on record?
Answer: 81 ± 19 nM

Question: What about the IC50 (VEGFR1) of the same molecule?
Answer: 42 ± 12 nM

Question: With COC(=O)[C@@]1(O)C[C@H]2O[C@]1(C)n1c3ccccc3c3c4c(c5c6ccccc6n2c5c31)C(=O)NC4 [K252a] as the molecule, how does the IC50 (CHK2; [6]) read?
Answer: 23 ± 5 nM

Question: And the IC50 (VEGFR1; [7])?
Answer: 13 ± 2 nM

Question: For O=c1c(O)c(-c2cc(O)c(O)c(O)c2)oc2cc(O)cc(O)c12 [Myricetin], which IC50 (VEGFR1) is on record?
Answer: 779 ± 173 nM

Question: For Cn1cc(C2=C(c3cn(CCCSC(=N)N)c4ccccc34)C(=O)NC2=O)c2ccccc21 [Ro318220], which IC50 (CHK2; [6]) is on record?
Answer: 1070 ± 210 nM

Question: What about the IC50 (VEGFR1; [7]) of the same molecule?
Answer: 120 ± 14 nM

Question: With Oc1c2ccccc2c2c3c(cccc13)N=N2 [SP600125] as the molecule, how does the IC50 (CHK2) read?
Answer: 304 ± 94 nM

Question: And the IC50 (VEGFR1)?
Answer: 335 ± 74 nM
